Test system: Engineered strains of E. coli
Assay type: cell-based
[1] = after solvent exposure, vs positive control

SMILES: C=CC(C)CC (stereo not drawn) [3-methyl-1-pentene]
- expression of acid resistance genes (gad, adi families): downregulated
- expression of chaperone proteins groLS, spy, and dnaJK: highly upregulated
- expression of dihydroxyacetone kinase genes dhaKLM: upregulated
- expression of galactitol metabolism genes gatABD: upregulated
- expression of heat shock proteins and chaperones hslJORUV: increased
- expression of ibpAB and clpAB (protein protection and repair): increased
- expression of marABC (multiple antibiotic resistance): upregulated
- expression of nitrate reductase genes narGHJKP: upregulated
- expression of phage shock genes pspABCDE: highly upregulated
- change in expression of gene adiA [1]: −3.34 ± 0.90
- change in expression of gene adiC [1]: −4.45 ± 1.13
- change in expression of gene adiY [1]: −4.27 ± 0.72
- change in expression of gene bhsA [1]: 4.75 ± 0.60
- change in expression of gene bssR [1]: −0.03 ± 0.44
- change in expression of gene bssS [1]: 5.81 ± 0.84
- change in expression of gene clpA [1]: 3.44 ± 0.63
- change in expression of gene clpB [1]: 6.13 ± 0.69
- change in expression of gene clpP [1]: 2.17 ± 0.59
- change in expression of gene coaA [1]: −1.75 ± 0.90
- change in expression of gene coaD [1]: 0.47 ± 0.93
- change in expression of gene cspA [1]: −4.30 ± 0.58
- change in expression of gene cspB [1]: −3.27 ± 1.33
- change in expression of gene cspC [1]: −1.52 ± 0.93
- change in expression of gene cspD [1]: 3.11 ± 0.58
- change in expression of gene cspE [1]: 0.28 ± 0.63
- change in expression of gene cspF [1]: −2.49 ± 1.08
- change in expression of gene dhaK [1]: 3.88 ± 0.59
- change in expression of gene dhaL [1]: 3.17 ± 0.63
- change in expression of gene dnaJ [1]: 6.43 ± 0.69
- change in expression of gene dnaK [1]: 4.74 ± 0.66
- change in expression of gene fabA [1]: −0.23 ± 0.77
- change in expression of gene fabB [1]: 2.75 ± 0.66
- change in expression of gene fabD [1]: −0.87 ± 0.53
- change in expression of gene flgA [1]: −2.55 ± 1.64
- change in expression of gene flgB [1]: −5.95 ± 1.74
- change in expression of gene flgC [1]: −5.29 ± 2.06
- change in expression of gene flgD [1]: −5.38 ± 2.00
- change in expression of gene flgE [1]: −4.38 ± 1.24
- change in expression of gene flgF [1]: −3.45 ± 1.66
- change in expression of gene flgG [1]: −4.32 ± 1.57
- change in expression of gene flgH [1]: −3.08 ± 1.80
- change in expression of gene gabD [1]: −0.39 ± 1.37
- change in expression of gene gabP [1]: −0.55 ± 1.33
- change in expression of gene gabT [1]: −0.74 ± 1.35
- change in expression of gene gadA [1]: −3.97 ± 0.90
- change in expression of gene gadB [1]: −2.34 ± 0.85
- change in expression of gene gadC [1]: −1.88 ± 0.83
- change in expression of gene gadE [1]: −5.01 ± 0.68
- change in expression of gene gadW [1]: −5.73 ± 1.17
- change in expression of gene gadX [1]: −2.89 ± 0.58
- change in expression of gene gadY [1]: −4.81 ± 0.90
- change in expression of gene glpA [1]: 7.04 ± 0.87
- change in expression of gene glpB [1]: 4.86 ± 0.63
- change in expression of gene glpC [1]: 5.64 ± 0.80
- change in expression of gene groL [1]: 4.37 ± 0.57
- change in expression of gene groS [1]: 4.22 ± 0.50
- change in expression of gene hchA [1]: 2.03 ± 0.62
- change in expression of gene hslJ [1]: 1.02 ± 0.67
- change in expression of gene hslO [1]: 3.42 ± 0.64
- change in expression of gene hslR [1]: 3.19 ± 0.66
- change in expression of gene hslU [1]: 3.91 ± 0.56
- change in expression of gene hslV [1]: 3.66 ± 0.61
- change in expression of gene ibpA [1]: 9.84 ± 1.21
- change in expression of gene ibpB [1]: 11.65 ± 1.50
- change in expression of gene lhgO [1]: −1.08 ± 1.80
- change in expression of gene lipA [1]: 0.62 ± 0.61
- change in expression of gene lipB [1]: 1.26 ± 0.64
- change in expression of gene narG [1]: 0.67 ± 0.66
- change in expression of gene narH [1]: −0.40 ± 0.65
- change in expression of gene narI [1]: −2.41 ± 1.20
- change in expression of gene narJ [1]: −0.67 ± 0.73
- change in expression of gene narK [1]: 0.15 ± 0.90
- change in expression of gene potA [1]: −2.42 ± 0.82
- change in expression of gene potB [1]: −1.56 ± 1.33
- change in expression of gene potC [1]: −0.61 ± 1.22
- change in expression of gene pspA [1]: 10.50 ± 0.55
- change in expression of gene pspB [1]: 8.15 ± 0.68
- change in expression of gene rpoA [1]: 0.25 ± 0.44
- change in expression of gene rpoB [1]: 0.39 ± 0.40
- change in expression of gene rpoC [1]: 0.99 ± 0.39
- change in expression of gene rpoD [1]: 3.68 ± 0.70
- change in expression of gene rpoE [1]: −2.04 ± 0.63
- change in expression of gene rpoH [1]: 0.68 ± 0.52
- change in expression of gene rpoN [1]: −1.52 ± 0.50
- change in expression of gene rpoS [1]: −0.17 ± 0.48
- change in expression of gene rpoZ [1]: −1.17 ± 0.55
- change in expression of gene spy [1]: 3.35 ± 0.88
- change in expression of gene tatA [1]: −1.50 ± 0.52
- change in expression of gene tatB [1]: −1.06 ± 0.60
- change in expression of gene tatC [1]: −1.33 ± 1.12
- change in expression of gene tatD [1]: −2.62 ± 1.19
- change in expression of gene tatE [1]: −0.18 ± 0.65
- number of genes with significant changes in expression (vs control, Bon Ferroni corrected p-value<0.05): 540 genes

From patent publication US20230167467A1, “METHODS AND COMPOSITIONS FOR THE PRODUCTION OF ISOBUTENE” (University of Alaska Anchorage, priority 2020, published 2023)
